According to ChEMBL document CHEMBL3804767, “Discovery and Preclinical Evaluation of BMS-955829, a Potent Positive Allosteric Modulator of mGluR5” (ACS Med Chem Lett, 2016):
Blank lines part the entries; values can stand above or below the molecule they belong to. Calls of active or inactive are those of the source. No cut-off for these calls is given here.

Assays:
Mus musculus [1] = assay: Neurotoxicity in C57/BL6 mouse assessed as induction of convulsion at 10 mg/kg, ip; assay type: toxicity, organism-based; conditions: in vivo
[2] = Protein binding in plasma (unknown origin); assay type: ADME, cell-free; conditions: read-out: PPB (converted)
[3] = molecular target: T1, Metabotropic glutamate receptor 5 (Homo sapiens, UniProt P41594)
T1 sequence (P41594 whole entry): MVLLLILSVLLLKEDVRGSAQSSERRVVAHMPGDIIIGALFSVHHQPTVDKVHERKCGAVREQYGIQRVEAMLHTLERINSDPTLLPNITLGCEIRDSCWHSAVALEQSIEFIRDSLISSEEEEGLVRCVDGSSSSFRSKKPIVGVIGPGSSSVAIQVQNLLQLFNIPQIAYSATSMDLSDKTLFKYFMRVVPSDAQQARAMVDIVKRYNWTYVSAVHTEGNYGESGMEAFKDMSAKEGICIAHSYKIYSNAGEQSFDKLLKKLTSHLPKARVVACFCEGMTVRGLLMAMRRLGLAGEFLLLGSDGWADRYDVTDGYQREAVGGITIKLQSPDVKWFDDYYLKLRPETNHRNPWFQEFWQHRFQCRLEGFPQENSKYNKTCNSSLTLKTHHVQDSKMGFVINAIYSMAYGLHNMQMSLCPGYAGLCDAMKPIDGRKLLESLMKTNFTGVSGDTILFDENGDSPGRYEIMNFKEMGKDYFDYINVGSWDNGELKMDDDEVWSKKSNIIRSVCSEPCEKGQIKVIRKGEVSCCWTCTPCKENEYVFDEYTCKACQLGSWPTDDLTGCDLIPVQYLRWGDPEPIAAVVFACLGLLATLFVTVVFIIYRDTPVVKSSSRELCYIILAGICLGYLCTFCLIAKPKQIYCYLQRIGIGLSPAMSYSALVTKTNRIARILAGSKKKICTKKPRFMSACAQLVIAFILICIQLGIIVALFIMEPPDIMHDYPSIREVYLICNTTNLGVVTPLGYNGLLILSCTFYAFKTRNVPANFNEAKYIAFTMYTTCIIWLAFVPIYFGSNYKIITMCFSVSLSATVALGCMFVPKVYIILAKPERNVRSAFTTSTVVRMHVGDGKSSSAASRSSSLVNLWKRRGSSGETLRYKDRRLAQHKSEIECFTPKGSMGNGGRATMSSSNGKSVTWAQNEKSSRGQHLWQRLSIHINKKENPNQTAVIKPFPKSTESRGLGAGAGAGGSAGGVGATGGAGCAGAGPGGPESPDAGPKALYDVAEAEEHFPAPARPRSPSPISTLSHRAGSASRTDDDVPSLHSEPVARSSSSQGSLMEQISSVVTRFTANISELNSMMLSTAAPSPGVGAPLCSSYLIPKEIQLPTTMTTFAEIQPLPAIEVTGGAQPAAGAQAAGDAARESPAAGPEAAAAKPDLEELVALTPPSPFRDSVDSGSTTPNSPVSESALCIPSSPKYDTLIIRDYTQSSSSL
Description: Positive allosteric modulation of human mGlu5A receptor expressed in HEK293 cells coexpressing rat glutamate-aspartate transporter assessed as potentiation of L-glutamate-induced Ca2+ signal incubated for 60 mins by calcium 4 dye based FLIPR assay

[4] = molecular target: T1, Metabotropic glutamate receptor 5; remark: listed apart in the source
Description: Displacement of [3H]MPEPgamma in mGlu5 receptor (unknown origin) incubated for 60 mins by liquid scintillation counting method

[5] = molecular target: T1, Metabotropic glutamate receptor 5; remark: listed apart in the source
Description: Agonist activity at human mGlu5A receptor expressed in HEK293 cells coexpressing rat glutamate-aspartate transporter assessed as induction of Ca2+ release by calcium 4 dye based FLIPR assay

[6] = molecular target: Metabotropic glutamate receptor 5 (Rattus norvegicus, UniProt P31424); assay: Agonist activity at mGlu5A receptor in primary rat cortical astrocytes; assay type: cell-based
Mus musculus [7] = assay: Neurotoxicity in C57/BL6 mouse assessed as induction of convulsion at 10 mg/kg, ip coadministered with (4R,5R)-5-Phenyl-4-(4-(phenylethynyl)pyridin-2-yl)oxazolidin-2-one; assay type: toxicity, organism-based; conditions: in vivo
Mus musculus [8] = assay: Neurotoxicity in C57/BL6 mouse assessed as induction of convulsion at 30 mg/kg, ip; assay type: toxicity, organism-based; conditions: in vivo
Mus musculus [9] = assay: Ex vivo receptor occupancy of mGlu5 receptor in C57/BL6 mouse at 10 to 30 mg/kg, ip relative to control; assay type: functional
[10] = molecular target: Metabotropic glutamate receptor 1 (Homo sapiens) (UniProt Q13255); assay: Positive allosteric modulation of mGlu1 receptor (unknown origin)
[11] = molecular target: Metabotropic glutamate receptor 1 (Homo sapiens) (UniProt Q13255); assay: Negative allosteric modulation of mGlu1 receptor (unknown origin)
[12] = molecular target: Metabotropic glutamate receptor 1 (Homo sapiens) (UniProt Q13255); assay: Agonist activity at mGlu1 receptor (unknown origin)
[13] = molecular target: Metabotropic glutamate receptor 2 (Homo sapiens) (UniProt Q14416); assay: Positive allosteric modulation of mGlu2 receptor (unknown origin)
Chain of Metabotropic glutamate receptor 2 (Homo sapiens) (Q14416 19-872 limits assumed): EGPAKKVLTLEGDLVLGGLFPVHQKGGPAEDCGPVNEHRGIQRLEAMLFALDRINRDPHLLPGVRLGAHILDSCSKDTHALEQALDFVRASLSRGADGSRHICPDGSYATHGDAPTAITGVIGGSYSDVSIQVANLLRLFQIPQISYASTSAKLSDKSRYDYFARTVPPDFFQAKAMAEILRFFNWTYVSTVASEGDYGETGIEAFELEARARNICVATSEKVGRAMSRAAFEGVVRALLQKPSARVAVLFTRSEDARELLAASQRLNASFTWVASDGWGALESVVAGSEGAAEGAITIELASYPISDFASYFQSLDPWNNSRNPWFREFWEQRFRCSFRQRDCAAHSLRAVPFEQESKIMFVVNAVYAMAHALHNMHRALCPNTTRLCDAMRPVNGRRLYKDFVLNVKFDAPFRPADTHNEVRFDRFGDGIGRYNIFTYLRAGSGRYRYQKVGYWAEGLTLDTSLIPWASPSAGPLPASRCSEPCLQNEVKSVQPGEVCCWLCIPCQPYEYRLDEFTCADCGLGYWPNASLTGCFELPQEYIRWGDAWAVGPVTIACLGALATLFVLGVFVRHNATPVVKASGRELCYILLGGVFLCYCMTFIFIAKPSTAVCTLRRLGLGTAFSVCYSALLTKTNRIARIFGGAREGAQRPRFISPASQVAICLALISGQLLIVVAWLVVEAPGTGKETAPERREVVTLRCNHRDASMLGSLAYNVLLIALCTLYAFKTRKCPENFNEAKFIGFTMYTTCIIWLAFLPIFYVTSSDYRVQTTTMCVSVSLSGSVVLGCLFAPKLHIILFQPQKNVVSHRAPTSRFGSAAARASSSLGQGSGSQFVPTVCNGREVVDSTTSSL

[14] = molecular target: Metabotropic glutamate receptor 2 (Homo sapiens) (UniProt Q14416); assay: Negative allosteric modulation of mGlu2 receptor (unknown origin)
[15] = molecular target: Metabotropic glutamate receptor 2 (Homo sapiens) (UniProt Q14416); assay: Agonist activity at mGlu2 receptor (unknown origin)
[16] = molecular target: Metabotropic glutamate receptor 3 (Homo sapiens) (UniProt Q14832); assay: Positive allosteric modulation of mGlu3 receptor (unknown origin)
Chain of Metabotropic glutamate receptor 3 (Homo sapiens) (Q14832 23-879 limits assumed): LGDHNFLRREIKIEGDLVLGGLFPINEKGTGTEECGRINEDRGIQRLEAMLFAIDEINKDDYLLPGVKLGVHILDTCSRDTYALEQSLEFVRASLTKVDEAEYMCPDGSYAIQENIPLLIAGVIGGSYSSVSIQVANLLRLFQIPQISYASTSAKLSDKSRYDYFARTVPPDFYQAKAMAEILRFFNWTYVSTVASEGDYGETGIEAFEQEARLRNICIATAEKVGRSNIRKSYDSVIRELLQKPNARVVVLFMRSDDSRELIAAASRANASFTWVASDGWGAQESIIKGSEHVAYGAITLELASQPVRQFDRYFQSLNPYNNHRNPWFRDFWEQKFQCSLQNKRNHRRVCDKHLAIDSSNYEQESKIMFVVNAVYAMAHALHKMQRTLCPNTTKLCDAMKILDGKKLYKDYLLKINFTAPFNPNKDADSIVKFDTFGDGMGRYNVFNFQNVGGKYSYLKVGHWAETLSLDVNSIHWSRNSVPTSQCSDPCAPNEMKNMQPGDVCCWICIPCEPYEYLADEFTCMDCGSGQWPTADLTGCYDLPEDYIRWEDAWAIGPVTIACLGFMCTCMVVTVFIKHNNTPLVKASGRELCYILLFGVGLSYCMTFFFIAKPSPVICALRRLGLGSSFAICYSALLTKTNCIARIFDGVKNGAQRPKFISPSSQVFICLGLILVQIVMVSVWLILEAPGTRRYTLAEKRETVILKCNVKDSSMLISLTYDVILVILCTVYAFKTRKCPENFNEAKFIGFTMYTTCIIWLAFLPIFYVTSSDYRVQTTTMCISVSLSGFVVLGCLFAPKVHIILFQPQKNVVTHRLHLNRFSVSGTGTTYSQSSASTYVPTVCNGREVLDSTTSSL

[17] = molecular target: Metabotropic glutamate receptor 3 (Homo sapiens) (UniProt Q14832); assay: Negative allosteric modulation of mGlu3 receptor (unknown origin)
[18] = molecular target: Metabotropic glutamate receptor 3 (Homo sapiens) (UniProt Q14832); assay: Agonist activity at mGlu3 receptor (unknown origin)
[19] = molecular target: Metabotropic glutamate receptor 4 (Homo sapiens) (UniProt Q14833); assay: Positive allosteric modulation of mGlu4 receptor (unknown origin)
Chain of Metabotropic glutamate receptor 4 (Homo sapiens) (Q14833 whole entry): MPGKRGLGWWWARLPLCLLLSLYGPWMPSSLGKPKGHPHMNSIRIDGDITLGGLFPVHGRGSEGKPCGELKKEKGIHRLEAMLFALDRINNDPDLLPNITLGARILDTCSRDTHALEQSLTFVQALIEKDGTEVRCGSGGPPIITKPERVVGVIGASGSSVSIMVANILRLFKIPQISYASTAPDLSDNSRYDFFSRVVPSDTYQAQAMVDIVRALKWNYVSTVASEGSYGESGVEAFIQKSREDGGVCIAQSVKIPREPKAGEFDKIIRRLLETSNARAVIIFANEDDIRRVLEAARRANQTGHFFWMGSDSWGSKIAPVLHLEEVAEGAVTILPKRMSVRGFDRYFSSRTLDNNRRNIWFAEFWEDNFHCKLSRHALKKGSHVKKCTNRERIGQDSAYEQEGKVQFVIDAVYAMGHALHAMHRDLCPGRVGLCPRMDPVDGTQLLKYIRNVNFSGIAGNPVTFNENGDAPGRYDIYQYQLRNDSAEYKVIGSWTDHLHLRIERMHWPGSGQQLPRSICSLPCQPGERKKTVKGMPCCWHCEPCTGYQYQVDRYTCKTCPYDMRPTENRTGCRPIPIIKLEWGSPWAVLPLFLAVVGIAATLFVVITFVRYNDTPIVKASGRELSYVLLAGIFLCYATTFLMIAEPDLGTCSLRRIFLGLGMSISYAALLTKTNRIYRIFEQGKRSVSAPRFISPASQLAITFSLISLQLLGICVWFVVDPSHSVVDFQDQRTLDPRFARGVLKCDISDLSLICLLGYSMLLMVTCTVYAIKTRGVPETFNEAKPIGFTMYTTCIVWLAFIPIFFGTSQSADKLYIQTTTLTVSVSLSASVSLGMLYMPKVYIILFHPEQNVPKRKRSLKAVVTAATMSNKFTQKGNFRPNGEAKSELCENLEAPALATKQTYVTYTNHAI

[20] = molecular target: Metabotropic glutamate receptor 4 (Homo sapiens) (UniProt Q14833); assay: Negative allosteric modulation of mGlu4 receptor (unknown origin)
[21] = molecular target: Metabotropic glutamate receptor 4 (Homo sapiens) (UniProt Q14833); assay: Agonist activity at mGlu4 receptor (unknown origin)
[22] = molecular target: Metabotropic glutamate receptor 6 (Homo sapiens) (UniProt O15303); assay: Positive allosteric modulation of mGlu6 receptor (unknown origin)
Chain of Metabotropic glutamate receptor 6 (Homo sapiens) (O15303 whole entry): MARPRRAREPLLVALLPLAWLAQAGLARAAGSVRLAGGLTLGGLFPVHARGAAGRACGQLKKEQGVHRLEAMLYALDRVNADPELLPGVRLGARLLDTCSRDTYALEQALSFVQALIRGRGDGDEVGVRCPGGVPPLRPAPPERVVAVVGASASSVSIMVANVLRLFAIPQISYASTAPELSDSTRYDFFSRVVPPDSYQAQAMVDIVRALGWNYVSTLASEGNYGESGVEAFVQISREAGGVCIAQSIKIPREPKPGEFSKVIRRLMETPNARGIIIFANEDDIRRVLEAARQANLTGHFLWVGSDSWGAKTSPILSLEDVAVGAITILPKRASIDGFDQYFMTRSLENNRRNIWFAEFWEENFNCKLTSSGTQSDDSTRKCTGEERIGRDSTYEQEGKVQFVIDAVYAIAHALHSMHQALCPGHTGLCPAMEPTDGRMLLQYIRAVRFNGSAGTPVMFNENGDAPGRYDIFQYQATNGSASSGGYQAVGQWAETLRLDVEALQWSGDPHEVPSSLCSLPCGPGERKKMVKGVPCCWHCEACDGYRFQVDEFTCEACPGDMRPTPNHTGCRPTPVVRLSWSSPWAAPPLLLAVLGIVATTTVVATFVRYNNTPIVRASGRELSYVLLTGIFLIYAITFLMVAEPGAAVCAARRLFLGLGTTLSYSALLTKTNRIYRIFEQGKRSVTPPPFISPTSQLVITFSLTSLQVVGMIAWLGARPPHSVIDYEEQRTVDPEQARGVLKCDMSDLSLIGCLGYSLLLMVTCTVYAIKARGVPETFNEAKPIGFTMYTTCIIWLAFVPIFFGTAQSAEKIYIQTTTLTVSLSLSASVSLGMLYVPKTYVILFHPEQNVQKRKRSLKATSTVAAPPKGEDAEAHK

[23] = molecular target: Metabotropic glutamate receptor 6 (Homo sapiens) (UniProt O15303); assay: Negative allosteric modulation of mGlu6 receptor (unknown origin)
[24] = molecular target: Metabotropic glutamate receptor 6 (Homo sapiens) (UniProt O15303); assay: Agonist activity at mGlu6 receptor (unknown origin)
[25] = molecular target: Metabotropic glutamate receptor 7 (Homo sapiens) (UniProt Q14831); assay: Positive allosteric modulation of mGlu7 receptor (unknown origin)
[26] = molecular target: Metabotropic glutamate receptor 7 (Homo sapiens) (UniProt Q14831); assay: Negative allosteric modulation of mGlu7 receptor (unknown origin)
[27] = molecular target: Metabotropic glutamate receptor 7 (Homo sapiens) (UniProt Q14831); assay: Agonist activity at mGlu7 receptor (unknown origin)
[28] = molecular target: Metabotropic glutamate receptor 8 (Homo sapiens) (UniProt O00222); assay: Positive allosteric modulation of mGlu8 receptor (unknown origin)
[29] = molecular target: Metabotropic glutamate receptor 8 (Homo sapiens) (UniProt O00222); assay: Negative allosteric modulation of mGlu8 receptor (unknown origin)
[30] = molecular target: Metabotropic glutamate receptor 8 (Homo sapiens) (UniProt O00222); assay: Agonist activity at mGlu8 receptor (unknown origin)
Mus musculus [31] = assay: Cognitive enhancement effect in mouse assessed as reduction in time spent with familiar object in retention session at 0.3 to 3 mg/kg, sc treated for 60 mins prior to acquisition session measured after 24 hrs for 10 mins by novel object recognition assay; assay type: functional; conditions: read-out: MED
Plasma [32] = assay: Total plasma concentration in mouse at 0.3 mg/kg, sc; assay type: ADME, organism-based; conditions: in vivo
Brain [33] = assay: Total drug level in mouse brain at 0.3 mg/kg, sc; assay type: ADME, organism-based; conditions: in vivo, read-out: Drug uptake
Rattus norvegicus [34] = assay: Reversal of NMDA antagonist MK-801-induced deficits in set shift performance in Sprague-Dawley rat assessed as reduction in number of trial required to achieve 8 consecutive correct selection at 0.1 to 3 mg/kg, sc pretreated for 25 mins followed by MK-801 injection measured after 35 mins by wisconsin card sorting test; assay type: functional; conditions: read-out: MED
Mus musculus [35] = assay: Receptor occupancy of mGlu5 receptor in mouse at 0.3 mg/kg, sc relative to control; assay type: functional
Plasma [36] = assay: Total plasma concentration in Sprague-Dawley rat at 0.1 mg/kg, sc; assay type: ADME, organism-based; conditions: in vivo
Brain [37] = assay: Total drug level in Sprague-Dawley rat brain at 0.1 mg/kg, sc; assay type: ADME, organism-based; conditions: in vivo, read-out: Drug uptake
Rattus norvegicus [38] = assay: Receptor occupancy of mGlu5 receptor in Sprague-Dawley rat at 0.1 mg/kg, sc relative to control; assay type: functional
[39] = Inhibition of human recombinant CYP450; assay type: ADME
[40] = molecular target: Voltage-gated inwardly rectifying potassium channel KCNH2 (Homo sapiens, UniProt Q12809); assay: Inhibition of human ERG by patch clamp method
Homo sapiens = organism: Homo sapiens; assay: Inhibition of sodium channel (unknown origin) at 10 uM by patch clamp method relative to control
[41] = molecular target: T2, Progesterone receptor (Homo sapiens) (UniProt P06401); assay: Antagonist activity at progesterone receptor (unknown origin)
T2 sequence (whole entry): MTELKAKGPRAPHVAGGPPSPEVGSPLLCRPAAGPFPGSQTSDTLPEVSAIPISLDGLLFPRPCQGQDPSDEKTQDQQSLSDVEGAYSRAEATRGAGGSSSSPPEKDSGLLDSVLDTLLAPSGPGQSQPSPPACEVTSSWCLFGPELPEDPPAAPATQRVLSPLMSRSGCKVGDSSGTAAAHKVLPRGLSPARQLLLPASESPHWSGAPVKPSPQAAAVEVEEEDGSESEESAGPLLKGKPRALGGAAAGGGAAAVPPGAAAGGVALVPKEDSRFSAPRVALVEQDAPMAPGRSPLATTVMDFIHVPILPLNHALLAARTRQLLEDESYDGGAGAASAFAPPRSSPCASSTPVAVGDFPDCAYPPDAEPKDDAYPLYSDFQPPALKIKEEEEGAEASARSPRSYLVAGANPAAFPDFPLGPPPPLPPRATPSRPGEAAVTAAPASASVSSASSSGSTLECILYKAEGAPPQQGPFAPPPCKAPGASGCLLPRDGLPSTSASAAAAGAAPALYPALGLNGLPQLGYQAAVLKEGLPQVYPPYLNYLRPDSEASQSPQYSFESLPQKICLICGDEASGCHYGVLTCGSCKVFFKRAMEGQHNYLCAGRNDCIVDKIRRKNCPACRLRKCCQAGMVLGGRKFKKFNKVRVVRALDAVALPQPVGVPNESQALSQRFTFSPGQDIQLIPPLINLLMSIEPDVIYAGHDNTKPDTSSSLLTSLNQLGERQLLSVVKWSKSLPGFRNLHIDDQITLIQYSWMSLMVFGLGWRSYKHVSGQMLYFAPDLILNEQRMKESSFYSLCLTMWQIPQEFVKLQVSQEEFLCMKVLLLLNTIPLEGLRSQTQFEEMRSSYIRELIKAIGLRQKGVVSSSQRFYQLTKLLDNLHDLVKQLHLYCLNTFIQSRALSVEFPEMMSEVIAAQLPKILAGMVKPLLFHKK

[42] = molecular target: T2, Progesterone receptor (Homo sapiens); assay: Agonist activity at progesterone receptor (unknown origin)
Progesterone receptor = molecular target: T3, Progesterone receptor (Homo sapiens, UniProt P06401); assay: Inhibition of progesterone receptor (unknown origin)
T3 sequence (P06401 whole entry): T2 sequence (whole entry)

Salmonella typhimurium [43] = assay: Mutagenicity in Salmonella typhimurium by Ames test in presence of s9 liver fraction; assay type: toxicity, organism-based; conditions: salmonella enterica subsp. enterica serovar typhimurium
Salmonella typhimurium [44] = assay: Mutagenicity in Salmonella typhimurium by Ames test; assay type: toxicity, organism-based; conditions: salmonella enterica subsp. enterica serovar typhimurium
[45] = Oral bioavailability in rat at 1 mg/kg; assay type: ADME, organism-based; conditions: in vivo
[46] = Oral bioavailability in dog at 1 mg/kg; assay type: ADME, organism-based, Canis lupus familiaris; conditions: in vivo
[47] = Oral bioavailability in cynomolgus monkey at 1 mg/kg; assay type: ADME, organism-based, Macaca fascicularis; conditions: in vivo
[48] = Clearance in rat at 1 mg/kg, iv; assay type: ADME, organism-based; conditions: in vivo
[49] = Volume of distribution at steady state in rat at 1 mg/kg, iv; assay type: ADME, organism-based; conditions: in vivo, read-out: Vdss
[50] = Ratio of drug level in brain to plasma in rat at 1 mg/kg, iv; assay type: ADME, organism-based; conditions: read-out: BPR
Rattus norvegicus [51] = assay: Neurotoxicity in rat assessed as neuronal necrosis in brain hippocampal slice at 100 mg/kg/day, po for 8 days by haematoxylin and eosin staining based assay; assay type: toxicity, organism-based; conditions: in vivo, 192 h
Rattus norvegicus [52] = assay: Neurotoxicity in rat assessed as neuronal necrosis in brain auditory complex at 100 mg/kg/day, po for 8 days by haematoxylin and eosin staining based assay; assay type: toxicity, organism-based; conditions: in vivo, 192 h
[53] = Cmax in rat at 100 mg/kg, po measured on day1; assay type: ADME, organism-based; set-up: dose 100 mg/kg, route oral; conditions: in vivo
[54] = AUC (0 to 24 hrs) in rat at 100 mg/kg, po measured on day1; assay type: ADME, organism-based; set-up: time < 24 hr, dose 100 mg/kg, route oral; conditions: in vivo
Rattus norvegicus [55] = assay: Toxicity in rat administered as repeated dosage for 2 weeks; assay type: organism-based; conditions: in vivo, 336 h
Canis familiaris = assay: Toxicity in dog administered as repeated dosage for 5 days; assay type: organism-based, Canis lupus familiaris; conditions: in vivo, 120 h

- fraction unbound [2]: 0.003
- EC50 [3]: 29 nM
- Ki [4]: 13 nM
- EC50 [5]: > 30000 nM
Compound: COc1cccc([C@H]2OC(=O)N[C@@H]2c2cccc(C#Cc3ccccc3)c2)c1
- Activity (Mus musculus [1]): Non-toxic

- EC50 [6]: 310 nM
- fraction unbound [2]: 0.035
- EC50 [3]: 6 nM
- Ki [4]: 25 nM
Compound: O=C1N[C@H](c2cncc(C#Cc3cncc(F)c3)c2)[C@@H](c2ccc(F)cc2)O1
- Activity (Mus musculus [1]): Toxic
- Activity (Mus musculus [7]): Non-toxic

- fraction unbound [2]: 0.007
- Activity [10]: > 10 µM
- Activity [11]: > 10 µM
- Activity [12]: > 10 µM
- Activity [13]: > 10 µM
- Activity [14]: > 10 µM
- Activity [15]: > 10 µM
- Activity [16]: > 10 µM
- Activity [17]: > 10 µM
- Activity [18]: > 10 µM
- Activity [19]: > 10 µM
- Activity [20]: > 10 µM
- Activity [21]: > 10 µM
- Activity [22]: > 10 µM
- Activity [23]: > 10 µM
- Activity [24]: > 10 µM
- Activity [25]: > 10 µM
- Activity [26]: > 10 µM
- Activity [27]: > 10 µM
- Activity [28]: > 10 µM
- Activity [29]: > 10 µM
- Activity [30]: > 10 µM
- concentration (Plasma [32]): 116 nM
- concentration (Brain [33]): 178 nM
- concentration (Plasma [36]): 34 nM
- concentration (Brain [37]): 34 nM
- IC50 [39]: ≥ 1300 nM
- inhibition (Homo sapiens): 40%
- inhibition [41]: inactive
- Activity [42]: inactive
- IC50 (Progesterone receptor): 2300 nM
- bioavailability [45]: 100%
- bioavailability [46]: 68%
- bioavailability [47]: 50%
- clearance [48]: 11 mL/min/kg
- Vd [49]: 1.8 L/kg
- Kp [50]: 1
- Cmax [53]: 41000 nM
- AUC(0-t) at 24 h [54]: 751 µM·h
Compound: O=C1N[C@H](c2cncc(C#Cc3ccccc3)c2)[C@@H](c2cc(F)ccc2F)O1
- Activity (Mus musculus [8]): Non-toxic
- Occ (Mus musculus [9]): 94%
- minimal effective dose (Mus musculus [31]): 0.3 mg/kg
- minimal effective dose (Rattus norvegicus [34]): 0.1 mg/kg
- Occ (Mus musculus [35]): 18%
- Occ (Rattus norvegicus [38]): 19%
- IC50 [40]: 3600 nM
- Activity (Salmonella typhimurium [43]): Non-toxic
- Activity (Salmonella typhimurium [44]): Non-toxic
- Activity (Rattus norvegicus [51]): Non-toxic
- Activity (Rattus norvegicus [52]): Non-toxic
- Activity (Rattus norvegicus [55]): Non-toxic
- Activity (Canis familiaris): Non-toxic
